Measurements reported in patent publication US20180289709A1, “METHODS OF TREATING INFLAMMATION” (priority 2010, published 2018).

Test system: primary mouse lung fibroblasts (MLFs)
Conditions: 1 μM

In the case of `CC[C@@H]1C(=O)N(C)c2cnc(Nc3ccc(C(=O)NC4CCN(C)CC4)cc3OC)nc2N1C1CCCC1` [BI 2536], the “viral replication (luciferase activity in reporter cells)” value is reported as “elevated replication”.
